Measured values taken from patent US6737383B1, “Herbicidal oxadiazolidines” (priority 1999, dated 2004).

Legend:
bedstraw = assay: Test B pre/postemergence bedstraw; format: in vivo, Galium aparine
How it was run: (§1)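 Test chemicals in a non-phytotoxic solvent mixture with surfactant were sprayed preemergence onto planted seeds and postemergence onto plants 2 to 18 cm tall (1- to 4-leaf stage). After twelve to sixteen days in a greenhouse, injury was visually rated against untreated controls from 0 (no effect) to 10 (complete control).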

blackgrass = assay: Test B pre/postemergence blackgrass; format: in vivo, Alopecurus myosuroides
How it was run: as §1

surinam grass = assay: Test B pre/postemergence surinam grass; format: in vivo, Brachiaria decumbens
How it was run: as §1

cocklebur = assay: Test B pre/postemergence cocklebur; format: in vivo, Xanthium strumarium
How it was run: as §1

giant foxtail = assay: Test B pre/postemergence giant foxtail; format: in vivo, Setaria faberii
How it was run: as §1

morningglory = assay: Test B pre/postemergence morningglory; format: in vivo, Ipomoea hederacea
How it was run: as §1

pigweed = assay: Test B pre/postemergence pigweed; format: in vivo, Amaranthus retroflexus
How it was run: as §1

rape = assay: Test B pre/postemergence rape; format: in vivo, Brassica napus
How it was run: as §1

soybean = assay: Test B pre/postemergence soybean; format: in vivo, Glycine max
How it was run: as §1

velvetleaf = assay: Test B pre/postemergence velvetleaf; format: in vivo, Abutilon theophrasti
How it was run: as §1

wheat = assay: Test B pre/postemergence wheat; format: in vivo, Triticum aestivum
How it was run: as §1

wild oat = assay: Test B pre/postemergence wild oat; format: in vivo, Avena fatua
How it was run: as §1

purple nutsedge = assay: Test B pre/postemergence purple nutsedge; format: in vivo, Cyperus rotundus
How it was run: as §1

smallflower flatsedge = assay: Test B flood test smallflower flatsedge; format: in vivo, Cyperus difformis
How it was run: (§2)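 Read-out is a visual response score from 0 (no effect) to 10 (complete control), assigned by comparison with untreated controls. Treatment was applied at the 2-leaf stage, and plants stayed in the greenhouse for twelve to sixteen days before scoring.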

duck salad = assay: Test B flood test duck salad; format: in vivo, Heteranthera limosa
How it was run: as §2

bamyardgrass = assay: Test B flood test barnyardgrass; format: in vivo, Echinochloa crus-galli
How it was run: as §2

[1] = Preemergence, Rate 62 g/ha, scale of 0 to 10 where 0 is no effect and 10 is complete control
[2] = Preemergence, Rate 125 g/ha, 0 is no effect, 10 is complete control
[3] = Preemergence, Rate 250 g/ha, scale 0 to 10, 0 is no effect, 10 is complete control
[4] = Preemergence, Rate 500 g/ha, scale of 0 to 10 where 0 is no effect and 10 is complete control
[5] = Rate 62 g/ha, Postemergence, scale of 0 to 10 where 0 is no effect and 10 is complete control
[6] = Rate 125 g/ha, Postemergence, scale 0 to 10
[7] = Rate 500 g/ha, Postemergence, scale 0 to 10
[8] = Rate 31 g/ha, Pre-emergence section (flood test species), scale 0 to 10
[9] = Rate 62 g/ha, headed Pre-emergence (flood test species), scale 0 to 10 (0 no effect, 10 complete control)
[10] = Rate 125 g/ha, Pre-emergence, flood test species, scale 0 to 10 where 0 is no effect and 10 is complete control
[11] = Rate 250 g/ha, Pre-emergence, flood-test species, scale 0 to 10, 0 is no effect, 10 is complete control
[12] = Rate 500 g/ha, headed Pre-emergence (flood test species), scale 0 to 10 (0 no effect, 10 complete control)

Cc1nc(C)c(-n2c(=O)on(C(=O)N(c3ccc(Cl)cc3)C(C)C)c2=O)s1 [Compound 196]
0: Bedstraw plant response rating (bedstraw; [1]) | Bedstraw plant response rating (0 to 10 scale) (bedstraw; [2]) | Bedstraw plant response rating (bedstraw; [3]) | Plant response rating, Bedstraw (bedstraw; [4]) | Bedstraw plant response rating (bedstraw; [5]) | Bedstraw plant response rating (bedstraw; [6]) | Plant response rating (0 to 10; 0 is no effect, 10 is complete control), Bedstraw (bedstraw; Rate 250 g/ha, Postemergence) | Bedstraw plant response rating (bedstraw; [7]) | Blackgrass plant response rating (blackgrass; [1]) | Blackgrass plant response rating (0 to 10 scale) (blackgrass; [2]) | Blackgrass plant response rating (blackgrass; [3]) | Plant response rating, Blackgrass (blackgrass; [4]) | Blackgrass plant response rating (blackgrass; [5]) | Blackgrass plant response rating (blackgrass; [6]) | Plant response rating (0 to 10; 0 is no effect, 10 is complete control), Blackgrass (blackgrass; Rate 250 g/ha, Postemergence) | Blackgrass plant response rating (blackgrass; [7]) | B. signalgrass plant response rating (surinam grass; [1]) | B. signalgrass plant response rating (0 to 10 scale) (surinam grass; [2]) | B. signalgrass plant response rating (surinam grass; [3]) | Plant response rating, B. signalgrass (surinam grass; [4]) | B. signalgrass plant response rating (surinam grass; [5]) | B. signalgrass plant response rating (surinam grass; Rate 125 g/ha, Postemergence, scale 0 (no effect) to 10 (complete control)) | Plant response rating, B. signalgrass (surinam grass; Rate 250 g/ha, Postemergence, scale 0 to 10, 0 is no effect, 10 is complete control) | B. signalgrass plant response rating (surinam grass; Rate 500 g/ha, Postemergence, scale 0 to 10, 0 no effect, 10 complete control) | Cocklebur plant response rating (cocklebur; [1]) | Cocklebur plant response rating (0 to 10 scale) (cocklebur; [2]) | Cocklebur plant response rating (cocklebur; [3]) | Plant response rating, Cocklebur (cocklebur; [4]) | Cocklebur plant response rating (cocklebur; [5]) | Cocklebur plant response rating (cocklebur; [6]) | Plant response rating (0 to 10; 0 is no effect, 10 is complete control), Cocklebur (cocklebur; Rate 250 g/ha, Postemergence) | Cocklebur plant response rating (cocklebur; [7]) | Giant foxtail plant response rating (giant foxtail; [1]) | Giant foxtail plant response rating (0 to 10 scale) (giant foxtail; [2]) | Giant foxtail plant response rating (giant foxtail; [3]) | Plant response rating, Giant foxtail (giant foxtail; [4]) | Giant foxtail plant response rating (giant foxtail; [5]) | Giant foxtail plant response rating (giant foxtail; [6]) | Plant response rating (0 to 10; 0 is no effect, 10 is complete control), Giant foxtail (giant foxtail; Rate 250 g/ha, Postemergence) | Giant foxtail plant response rating (giant foxtail; [7]) | Morningglory plant response rating (morningglory; [1]) | Morningglory plant response rating (0 to 10 scale) (morningglory; [2]) | Morningglory plant response rating (morningglory; [3]) | Plant response rating, Morningglory (morningglory; [4]) | Morningglory plant response rating (morningglory; [5]) | Morningglory plant response rating (morningglory; [6]) | Plant response rating (0 to 10; 0 is no effect, 10 is complete control), Morningglory (morningglory; Rate 250 g/ha, Postemergence) | Morningglory plant response rating (morningglory; [7]) | Redroot pigweed plant response rating (pigweed; [1]) | Redroot pigweed plant response rating (0 to 10 scale) (pigweed; [2]) | Redroot pigweed plant response rating (pigweed; [3]) | Plant response rating, Redroot pigweed (pigweed; [4]) | Redroot pigweed plant response rating (pigweed; [5]) | Redroot pigweed plant response rating (pigweed; [6]) | Plant response rating (0 to 10; 0 is no effect, 10 is complete control), Redroot pigweed (pigweed; Rate 250 g/ha, Postemergence) | Redroot pigweed plant response rating (pigweed; [7]) | Rape plant response rating (rape; [1]) | Rape plant response rating (0 to 10 scale) (rape; [2]) | Rape plant response rating (rape; [3]) | Plant response rating, Rape (rape; [4]) | Rape plant response rating (rape; [5]) | Rape plant response rating (rape; [6]) | Plant response rating (0 to 10; 0 is no effect, 10 is complete control), Rape (rape; Rate 250 g/ha, Postemergence) | Rape plant response rating (rape; [7]) | Soybean plant response rating (soybean; [1]) | Soybean plant response rating (0 to 10 scale) (soybean; [2]) | Soybean plant response rating (soybean; [3]) | Plant response rating, Soybean (soybean; [4]) | Soybean plant response rating (soybean; [5]) | Soybean plant response rating (soybean; [6]) | Plant response rating (0 to 10; 0 is no effect, 10 is complete control), Soybean (soybean; Rate 250 g/ha, Postemergence) | Soybean plant response rating (soybean; [7]) | Velvetleaf plant response rating (velvetleaf; [1]) | Velvetleaf plant response rating (velvetleaf; [3]) | Plant response rating, Velvetleaf (velvetleaf; [4]) | Velvetleaf plant response rating (velvetleaf; [5]) | Velvetleaf plant response rating (velvetleaf; [6]) | Plant response rating (0 to 10; 0 is no effect, 10 is complete control), Velvetleaf (velvetleaf; Rate 250 g/ha, Postemergence) | Wheat plant response rating (wheat; [1]) | Wheat plant response rating (wheat; [3]) | Plant response rating, Wheat (wheat; [4]) | Wheat plant response rating (wheat; [5]) | Wheat plant response rating (wheat; [6]) | Plant response rating (0 to 10; 0 is no effect, 10 is complete control), Wheat (wheat; Rate 250 g/ha, Postemergence) | Wild oats plant response rating (wild oat; [1]) | Wild oats plant response rating (wild oat; [3]) | Plant response rating, Wild oats (wild oat; [4]) | Wild oats plant response rating (wild oat; [5]) | Wild oats plant response rating (wild oat; [6]) | Plant response rating (0 to 10; 0 is no effect, 10 is complete control), Wild oats (wild oat; Rate 250 g/ha, Postemergence) | Nutsedge plant response rating (purple nutsedge; [1]) | Nutsedge plant response rating (0 to 10 scale) (purple nutsedge; [2]) | Nutsedge plant response rating (purple nutsedge; [3]) | Plant response rating, Nutsedge (purple nutsedge; [4]) | Nutsedge plant response rating (purple nutsedge; [5]) | Nutsedge plant response rating (purple nutsedge; [6]) | Plant response rating (0 to 10; 0 is no effect, 10 is complete control), Nutsedge (purple nutsedge; Rate 250 g/ha, Postemergence) | Nutsedge plant response rating (purple nutsedge; [7]) | S. Flatsedge plant response rating (smallflower flatsedge; [8]) | S. Flatsedge plant response rating (smallflower flatsedge; [9]) | S. Flatsedge plant response rating (smallflower flatsedge; [10]) | S. Flatsedge plant response rating (smallflower flatsedge; [11]) | S. Flatsedge plant response rating (smallflower flatsedge; Rate 500 g/ha, Pre-emergence, flood test species, scale 0 to 10 (0 no effect, 10 complete control)) | Ducksalad plant response rating (duck salad; [8]) | Ducksalad plant response rating (duck salad; [9]) | Ducksalad plant response rating (duck salad; [10]) | Ducksalad plant response rating (duck salad; [11]) | Plant response rating, Ducksalad (duck salad; [12]) | Barnyardgrass plant response rating (bamyardgrass; [8]) | Barnyardgrass plant response rating (bamyardgrass; [9]) | Barnyardgrass plant response rating (bamyardgrass; [10]) | Barnyardgrass plant response rating (bamyardgrass; [11]) | Plant response rating, Barnyardgrass (bamyardgrass; [12])
